Measurements: patent US7851474B2, “Dipiperazinyl ketones and related analogues” (Neurogen Corporation, priority 2005, dated 2010)

Biological target: T1, chimeric human H3 receptor (Homo sapiens, UniProt Q9Y5N1, E19D)
T1 construct: made in house; host or cells: Sf9 insect cells (baculovirus infection); P2 membrane preparation
Test: Chimeric human H3 receptor GTP binding assay (agonist-stimulated GTP-gamma35S binding, Example 7)
Format: biochemical
Conditions: Table II; assay of Example 7; "*" in Ki; read-out: Ki
How it was run: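 Sf9 membranes co-expressing the chimeric receptor and heterotrimeric G-protein subunits, 35 μg protein per tube, in pH 7.4 Tris buffer with 10 μM GDP. Test compounds at 10^−10 to 10^−6 M with 1 μM histamine, 60 min at room temperature. Filter-bound GTP-gamma^35S read by scintillation; IC50 from non-linear regression of dose-response curves.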

T1 sequence (Q9Y5N1 with tags, fused parts or gaps E19D): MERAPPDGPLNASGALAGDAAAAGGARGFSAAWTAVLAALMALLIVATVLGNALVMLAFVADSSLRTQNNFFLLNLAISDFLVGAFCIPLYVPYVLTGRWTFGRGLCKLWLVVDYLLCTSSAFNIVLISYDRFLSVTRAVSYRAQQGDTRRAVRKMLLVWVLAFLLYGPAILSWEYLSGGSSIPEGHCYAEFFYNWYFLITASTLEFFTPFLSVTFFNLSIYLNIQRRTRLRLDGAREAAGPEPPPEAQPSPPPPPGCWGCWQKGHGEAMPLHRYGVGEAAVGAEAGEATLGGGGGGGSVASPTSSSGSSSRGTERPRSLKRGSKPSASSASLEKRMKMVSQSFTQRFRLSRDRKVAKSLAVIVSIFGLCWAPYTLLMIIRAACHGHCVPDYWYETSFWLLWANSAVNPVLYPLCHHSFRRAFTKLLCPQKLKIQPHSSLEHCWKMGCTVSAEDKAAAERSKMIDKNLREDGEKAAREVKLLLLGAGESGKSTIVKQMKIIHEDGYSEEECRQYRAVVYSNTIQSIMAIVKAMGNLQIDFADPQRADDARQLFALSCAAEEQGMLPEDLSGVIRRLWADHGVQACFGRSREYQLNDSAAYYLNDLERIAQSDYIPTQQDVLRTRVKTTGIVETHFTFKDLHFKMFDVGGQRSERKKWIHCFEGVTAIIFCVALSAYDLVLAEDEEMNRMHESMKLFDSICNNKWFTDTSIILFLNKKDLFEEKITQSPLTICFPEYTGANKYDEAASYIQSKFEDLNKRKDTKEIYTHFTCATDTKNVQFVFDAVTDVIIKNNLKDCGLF

Ki, < 1 µM:
Cc1cccc(C)c1-c1ccc(N2CCN(CC(=O)N3CCN(C4CCC4)CC3)CC2)nn1 [Compound 1059, 3-{4-[2-(4-cyclobutylpiperazin-1-yl)-2-oxoethyl]piperazin-1-yl}-6-(2,6-dimethylphenyl) pyridazine]
O=C(CN1CCN(c2ccc(-c3cc(Cl)ccc3Cl)nn2)CC1)N1CCN(C2CCC2)CC1 [Compound 1060, 3-{4-[2-(4-cyclobutylpiperazin-1-yl)-2-oxoethyl]piperazin-1-yl}-6-(2,5-dichlorophenyl)pyridazine]
Cc1cc(C)c(-c2ccc(N3CCN(CC(=O)N4CCN(C5CCC5)CC4)CC3)nn2)c(C)c1 [Compound 1061, 3-{4-[2-(4-cyclobutylpiperazin-1-yl)-2-oxoethyl]piperazin-1-yl}-6-mesitylpyridazine]
O=C(CN1CCN(c2ccc(-c3ccc(C(F)(F)F)cc3)nn2)CC1)N1CCN(C2CCC2)CC1 [Compound 1062, 3-{4-[2-(4-cyclobutylpiperazin-1-yl)-2-oxoethyl]piperazin-1-yl}-6-[4-(trifluoromethyl)phenyl] pyridazine]
O=C(CN1CCN(c2ccc(-c3cccc(C(F)(F)F)c3)nn2)CC1)N1CCN(C2CCC2)CC1 [Compound 1063, 3-{4-[2-(4-cyclobutylpiperazin-1-yl)-2-oxoethyl]piperazin-1-yl}-6-[3-(trifluoromethyl)phenyl] pyridazine]
CC1CCCN1C(=O)c1ccc(N2CCN(CC(=O)N3CCN(C4CCC4)CC3)CC2)nn1 (stereo not drawn) [Compound 1064, 3-{4-[2-(4-cyclobutylpiperazin-1-yl)-2-oxoethyl]piperazin-1-yl}-6-[(2-methylpyrrolidin-1-yl)carbonyl]pyridazine]
N#Cc1ccc(-c2cccc(N3CCN(CC(=O)N4CCN(C5CCC5)CC4)CC3)c2)cc1 [Compound 1065, 3′-{4-[2-(4-cyclobutylpiperazin-1-yl)-2-oxoethyl]piperazin-1-yl}biphenyl-4-carbonitrile]
CCN(C(=O)c1cccc(N2CCN(CC(=O)N3CCN(C4CCC4)CC3)CC2)c1)C(C)C [Compound 1066, 3-{4-[2-(4-cyclobutylpiperazin-1-yl)-2-oxoethyl]piperazin-1-yl}-N-ethyl-N-isopropylbenzamide]
CC(C)N(C)C(=O)c1cccc(N2CCN(CC(=O)N3CCN(C4CCC4)CC3)CC2)c1 [Compound 1067, 3-{4-[2-(4-cyclobutylpiperazin-1-yl)-2-oxoethyl]piperazin-1-yl}-N-isopropyl-N-methylbenzamide]
CN(C(=O)c1cccc(N2CCN(CC(=O)N3CCN(C4CCC4)CC3)CC2)c1)C1CCCCC1 [Compound 1068, 3-{4-[2-(4-cyclobutylpiperazin-1-yl)-2-oxoethyl]piperazin-1-yl}-N-cyclohexyl-N-methylbenzamide]
CCN(C(=O)c1cccc(N2CCN(CC(=O)N3CCN(C4CCC4)CC3)CC2)c1)C1CCCCC1 [Compound 1069, 3-{4-[2-(4-cyclobutylpiperazin-1-yl)-2-oxoethyl]piperazin-1-yl}-N-cyclohexyl-N-ethylbenzamide]
COCCN(C(=O)c1cccc(N2CCN(CC(=O)N3CCN(C4CCC4)CC3)CC2)c1)C(C)C [Compound 1070, 3-{4-[2-(4-cyclobutylpiperazin-1-yl)-2-oxoethyl]piperazin-1-yl}-N-isopropyl-N-(2-methoxyethyl)benzamide]
CCC(C)CNC(=O)c1cccc(N2CCN(CC(=O)N3CCN(C4CCC4)CC3)CC2)c1 (stereo not drawn) [Compound 1071, 3-{4-[2-(4-cyclobutylpiperazin-1-yl)-2-oxoethyl]piperazin-1-yl}-N-(2-methylbutyl)benzamide]
CCCNC(=O)c1cccc(N2CCN(CC(=O)N3CCN(C4CCC4)CC3)CC2)c1 [Compound 1072, 3-{4-[2-(4-cyclobutylpiperazin-1-yl)-2-oxoethyl]piperazin-1-yl}-N-propylbenzamide]
O=C(NCC1CC1)c1cccc(N2CCN(CC(=O)N3CCN(C4CCC4)CC3)CC2)c1 [Compound 1073, 3-{4-[2-(4-cyclobutylpiperazin-1-yl)-2-oxoethyl]piperazin-1-yl}-N-(cyclopropylmethyl) benzamide]
CC(C)CNC(=O)c1cccc(N2CCN(CC(=O)N3CCN(C4CCC4)CC3)CC2)c1 [Compound 1074, 3-{4-[2-(4-cyclobutylpiperazin-1-yl)-2-oxoethyl]piperazin-1-yl}-N-isobutylbenzamide]
CCCCCNC(=O)c1cccc(N2CCN(CC(=O)N3CCN(C4CCC4)CC3)CC2)c1 [Compound 1075, 3-{4-[2-(4-cyclobutylpiperazin-1-yl)-2-oxoethyl]piperazin-1-yl}-N-pentylbenzamide]
CC(C)CCNC(=O)c1cccc(N2CCN(CC(=O)N3CCN(C4CCC4)CC3)CC2)c1 [Compound 1076, 3-{4-[2-(4-cyclobutylpiperazin-1-yl)-2-oxoethyl]piperazin-1-yl}-N-(3-methylbutyl)benzamide]
O=C(NCC(F)(F)F)c1cccc(N2CCN(CC(=O)N3CCN(C4CCC4)CC3)CC2)c1 [Compound 1077, 3-{4-[2-(4-cyclobutylpiperazin-1-yl)-2-oxoethyl]piperazin-1-yl}-N-(2,2,2-trifluoroethyl)benzamide]
O=C(NC1CC1)c1cccc(N2CCN(CC(=O)N3CCN(C4CCC4)CC3)CC2)c1 [Compound 1078, 3-{4-[2-(4-cyclobutylpiperazin-1-yl)-2-oxoethyl]piperazin-1-yl}-N-cyclopropylbenzamide]
O=C(NC1CCCCC1)c1cccc(N2CCN(CC(=O)N3CCN(C4CCC4)CC3)CC2)c1 [Compound 1079, 3-{4-[2-(4-cyclobutylpiperazin-1-yl)-2-oxoethyl]piperazin-1-yl}-N-cyclohexylbenzamide]
CC(C)NC(=O)c1cccc(N2CCN(CC(=O)N3CCN(C4CCC4)CC3)CC2)c1 [Compound 1080, 3-{4-[2-(4-cyclobutylpiperazin-1-yl)-2-oxoethyl]piperazin-1-yl}-N-isopropylbenzamide]
O=C(NC1CCCC1)c1cccc(N2CCN(CC(=O)N3CCN(C4CCC4)CC3)CC2)c1 [Compound 1081, 3-{4-[2-(4-cyclobutylpiperazin-1-yl)-2-oxoethyl]piperazin-1-yl}-N-cyclopentylbenzamide]
CCCC(C)NC(=O)c1cccc(N2CCN(CC(=O)N3CCN(C4CCC4)CC3)CC2)c1 (stereo not drawn) [Compound 1082, 3-{4-[2-(4-cyclobutylpiperazin-1-yl)-2-oxoethyl]piperazin-1-yl}-N-(1-methylbutyl)benzamide]
O=C(NC1CCCCCC1)c1cccc(N2CCN(CC(=O)N3CCN(C4CCC4)CC3)CC2)c1 [Compound 1083, 3-{4-[2-(4-cyclobutylpiperazin-1-yl)-2-oxoethyl]piperazin-1-yl}-N-cycloheptylbenzamide]
O=C(NCC1CCCCC1)c1cccc(N2CCN(CC(=O)N3CCN(C4CCC4)CC3)CC2)c1 [Compound 1084, 3-{4-[2-(4-cyclobutylpiperazin-1-yl)-2-oxoethyl]piperazin-1-yl}-N-(cyclohexylmethyl) benzamide]
CC(C)(C)CNC(=O)c1cccc(N2CCN(CC(=O)N3CCN(C4CCC4)CC3)CC2)c1 [Compound 1085, 3-{4-[2-(4-cyclobutylpiperazin-1-yl)-2-oxoethyl]piperazin-1-yl}-N-(2,2-dimethylpropyl) benzamide]
CCC(CC)CNC(=O)c1cccc(N2CCN(CC(=O)N3CCN(C4CCC4)CC3)CC2)c1 [Compound 1086, 3-{4-[2-(4-cyclobutylpiperazin-1-yl)-2-oxoethyl]piperazin-1-yl}-N-(2-ethylbutyl)benzamide]
O=C(CN1CCN(c2ccc(Cl)nn2)CC1)N1CCN(C2CCC2)CC1 [Compound 1087, 3-chloro-6-{4-[2-(4-cyclobutylpiperazin-1-yl)-2-oxoethyl]piperazin-1-yl}pyridazine]
O=C(CN1CCN(c2cccc(C(=O)N3CCSCC3)c2)CC1)N1CCN(C2CCC2)CC1 [Compound 1091, 4-(3-{4-[2-(4-cyclobutylpiperazin-1-yl)-2-oxoethyl]piperazin-1-yl}benzoyl) thiomorpholine]
CC1CN(C(=O)c2cccc(N3CCN(CC(=O)N4CCN(C5CCC5)CC4)CC3)c2)CC(C)O1 (stereo not drawn) [Compound 1092, 4-(3-{4-[2-(4-cyclobutylpiperazin-1-yl)-2-oxoethyl]piperazin-1-yl}benzoyl)-2,6-dimethylmorpholine]
O=C(CN1CCN(c2ccc(C(=O)N3CCOCC3)cc2)CC1)N1CCN(C2CCC2)CC1 [Compound 1093, 4-(4-{4-[2-(4-cyclobutylpiperazin-1-yl)-2-oxoethyl]piperazin-1-yl}benzoyl)morpholine]
O=C(CN1CCN(c2ccc(C(=O)N3CCSCC3)cc2)CC1)N1CCN(C2CCC2)CC1 [Compound 1094, 4-(4-{4-[2-(4-cyclobutylpiperazin-1-yl)-2-oxoethyl]piperazin-1-yl}benzoyl) thiomorpholine]
CC1CN(C(=O)c2ccc(N3CCN(CC(=O)N4CCN(C5CCC5)CC4)CC3)cc2)CC(C)O1 (stereo not drawn) [Compound 1095, 4-(4-{4-[2-(4-cyclobutylpiperazin-1-yl)-2-oxoethyl]piperazin-1-yl}benzoyl)-2,6-dimethylmorpholine]
CC(=O)c1ccc(N2CCN(CC(=O)N3CCN(C4CCC4)CC3)C(=O)C2)cc1 [Compound 1096, 4-(4-acetylphenyl)-1-[2-(4-cyclobutylpiperazin-1-yl)-2-oxoethyl]piperazin-2-one]
CN(C)c1ccc(-c2cnc(N3CCN(CC(=O)N4CCN(C5CCC5)CC4)CC3)cn2)cc1 [Compound 1097, 4-(5-{4-[2-(4-cyclobutylpiperazin-1-yl)-2-oxoethyl]piperazin-1-yl}pyrazin-2-yl)-N,N-dimethylaniline]
